In assay [1] the target is T1, human cloned CHRM2 receptor (M2_CHO cells) (Homo sapiens, UniProt P08172).
T1 construct: expressed in transfected cells; host or cells: CHO-K1
T1 sequence (P08172 1-466): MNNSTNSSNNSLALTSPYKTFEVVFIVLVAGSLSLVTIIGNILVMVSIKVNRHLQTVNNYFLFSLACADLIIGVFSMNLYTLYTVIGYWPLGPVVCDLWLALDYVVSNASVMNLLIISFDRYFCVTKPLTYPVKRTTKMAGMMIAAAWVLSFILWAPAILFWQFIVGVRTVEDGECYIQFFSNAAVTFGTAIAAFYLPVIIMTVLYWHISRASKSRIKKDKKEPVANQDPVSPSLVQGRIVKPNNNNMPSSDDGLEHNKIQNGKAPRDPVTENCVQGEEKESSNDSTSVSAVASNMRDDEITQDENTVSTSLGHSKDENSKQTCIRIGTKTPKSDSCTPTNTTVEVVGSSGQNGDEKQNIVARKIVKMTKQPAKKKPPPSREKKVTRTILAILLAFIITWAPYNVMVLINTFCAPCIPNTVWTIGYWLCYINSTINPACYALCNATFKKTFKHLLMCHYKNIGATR
Kind of assay: CHRM2 Ca++ Flux Assay (agonist mode, FDSS 7000EX). It counts as cell-based. Particulars: for M2 FDSS PA / Emax: Percent Activity measured to EC100 of Carbachol; for Emax: read-out: M2 FDSS PA; for EC50: agonist mode, geometric mean if tested more than once, read-out: M2 FDSS EC50. Put shortly:
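Agonist-mode Ca++ flux in CHO-K1 cells stably expressing human CHRM2, dye-loaded, then held 60 min at room temperature in buffer with 20 μM ATP before compound addition; traces read over 3 minutes. Four-parameter fit of triplicate wells; percent activity relative to Carbachol EC100.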

For assay [2], the target named is T2, human cloned CHRM5 receptor (M5_CHO) (Homo sapiens, UniProt P08912).
T2 construct: expressed in transfected cells; host or cells: CHO (M5_CHO)
T2 sequence (P08912 1-532): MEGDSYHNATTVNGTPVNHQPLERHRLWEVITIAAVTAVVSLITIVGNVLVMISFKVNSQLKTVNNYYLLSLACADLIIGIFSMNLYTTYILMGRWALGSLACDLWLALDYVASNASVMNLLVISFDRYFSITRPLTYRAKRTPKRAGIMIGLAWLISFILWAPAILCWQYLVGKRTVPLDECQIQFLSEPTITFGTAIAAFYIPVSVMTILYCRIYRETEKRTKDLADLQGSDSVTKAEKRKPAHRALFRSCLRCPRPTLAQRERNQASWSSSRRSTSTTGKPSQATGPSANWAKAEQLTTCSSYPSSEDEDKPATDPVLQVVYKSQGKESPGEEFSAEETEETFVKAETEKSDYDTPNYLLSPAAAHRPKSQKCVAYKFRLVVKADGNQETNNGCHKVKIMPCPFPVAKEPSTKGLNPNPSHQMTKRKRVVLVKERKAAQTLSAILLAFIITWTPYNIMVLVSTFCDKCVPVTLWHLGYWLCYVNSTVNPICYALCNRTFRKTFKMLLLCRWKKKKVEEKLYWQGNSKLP
The assay is described as follows: CHRM5 Ca++ Flux Assay (agonist mode, FDSS 7000EX). The assay is classed as cell-based. Particulars: for M5 FDSS PA / Emax: Percent Activity measured to EC100 of Carbachol; for EC50: agonist mode, geometric mean if tested more than once, read-out: M5 FDSS EC50; for Emax: read-out: M5 FDSS PA. Put shortly:
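Agonist-mode calcium flux: 11-point dose responses, triplicate wells, fluorescence followed for 3 minutes. Cells are M3_CHO or M5_CHO lines (human receptors) with Ca++ indicator in probenecid-containing HEPES/HBSS buffer. Percent activity is referenced to carbachol EC100, and curves come from four-parameter nonlinear regression.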

Data on 16 compounds can be found in patent US12122761B2, “2-azaspiro[3.4]octane derivatives as M4 agonists” (NOVARTIS AG, priority 2019, dated 2024).

SMILES strings stand for the structures. A value given as a limit tells only on which side of the number the result lay.

As a reminder, the EC50 is the concentration that produces a half-maximal response.

Turning to `FC(F)Oc1ccccc1C1CCN([C@@H]2CCC3(C2)CN(c2nncs2)C3)CC1` (single isomer, unassigned) [Example 10O, (R)-2-(6-(4-(2-(difluoromethoxy)phenyl)piperidin-1-yl)-2-azaspiro[3.4]octan-2-yl)-1,3,4-thiadiazole or (S)-2-(6-(4-(2-(difluoromethoxy)phenyl)piperidin-1-yl)-2-azaspiro[3.4]octan-2-yl)-1,3,4-thiadiazole], the “M2 FDSS PA” value in assay [1] stood at 17%. For the same compound, in assay [2], the “M5 FDSS PA” value was found to be 0% and the EC50 is greater than 25 µM.
With `COc1ccccc1C1CCN([C@@H]2CCC3(C2)CN(c2ncns2)C3)CC1` (single isomer, unassigned) [Example 10Q, (R)-5-(6-(4-(2-methoxyphenyl)piperidin-1-yl)-2-azaspiro[3.4]octan-2-yl)-1,2,4-thiadiazole or (S)-5-(6-(4-(2-methoxyphenyl)piperidin-1-yl)-2-azaspiro[3.4]octan-2-yl)-1,2,4-thiadiazole], the “M2 FDSS PA” value in assay [1] is on record as 18%. Besides, in assay [2], the “M5 FDSS PA” value was determined as 0% and the EC50 was greater than 25 µM.
Take `COc1ccccc1C1CCN([C@@H]2CCC3(C2)CN(c2ncns2)C3)CC1` (single isomer, unassigned) [Example 10R, (R)-5-(6-(4-(2-methoxyphenyl)piperidin-1-yl)-2-azaspiro[3.4]octan-2-yl)-1,2,4-thiadiazole or (S)-5-(6-(4-(2-methoxyphenyl)piperidin-1-yl)-2-azaspiro[3.4]octan-2-yl)-1,2,4-thiadiazole]: in assay [1], the “M2 FDSS PA” value amounted to 0%. For the same compound, in assay [2], the “M5 FDSS PA” value is on record as 0% and the EC50 is greater than 25 µM.
Take `O=C(N1CC2(CC[C@@H](N3CCC(c4cc(F)ccc4OC4CC5(COC5)C4)CC3)C2)C1)C1(F)CC1` (single isomer, unassigned) [Example 11A, (R)-(6-(4-(2-((2-oxaspiro[3.3]heptan-6-yl)oxy)-5-fluorophenyl)piperidin-1-yl)-2-azaspiro[3.4]octan-2-yl)(1-fluorocyclopropyl)methanone or (S)-(6-(4-(2-((2-oxaspiro[3.3]heptan-6-yl)oxy)-5-fluorophenyl)piperidin-1-yl)-2-azaspiro[3.4]octan-2-yl)(1-fluorocyclopropyl)methanone]: in assay [1], the “M2 FDSS PA” value is listed as 0%. Besides, in assay [2], the “M5 FDSS PA” value was 0% and the EC50 is greater than 25 µM.
As to `O=C(N1CC2(CC[C@@H](N3CCC(c4cc(F)ccc4OC4CC5(COC5)C4)CC3)C2)C1)C1(F)CC1` (single isomer, unassigned) [Example 11B, (R)-(6-(4-(2-((2-oxaspiro[3.3]heptan-6-yl)oxy)-5-fluorophenyl)piperidin-1-yl)-2-azaspiro[3.4]octan-2-yl)(1-fluorocyclopropyl)methanone or (S)-(6-(4-(2-((2-oxaspiro[3.3]heptan-6-yl)oxy)-5-fluorophenyl)piperidin-1-yl)-2-azaspiro[3.4]octan-2-yl)(1-fluorocyclopropyl)methanone], the “M2 FDSS PA” value in assay [1] is listed as 0%. Besides, in assay [2], the “M5 FDSS PA” value was determined as 0% and the EC50 was greater than 25 µM.
With `O=C(N1CC2(CC[C@@H](N3CCC(c4ccccc4OC4CC5(COC5)C4)CC3)C2)C1)C1(F)CC1` (single isomer, unassigned) [Example 11C, (R)-(6-(4-(2-((2-oxaspiro[3.3]heptan-6-yl)oxy)phenyl)piperidin-1-yl)-2-azaspiro[3.4]octan-2-yl)(1-fluorocyclopropyl)methanone or (S)-(6-(4-(2-((2-oxaspiro[3.3]heptan-6-yl)oxy)phenyl)piperidin-1-yl)-2-azaspiro[3.4]octan-2-yl)(1-fluorocyclopropyl)methanone], the “M2 FDSS PA” value in assay [1] stood at 0%. Further, in assay [2], the “M5 FDSS PA” value is listed as 0% and the EC50 was greater than 25 µM.
As for `O=C(N1CC2(CC[C@@H](N3CCC(c4ccccc4OC4CC5(COC5)C4)CC3)C2)C1)C1(F)CC1` (single isomer, unassigned) [Example 11D, (R)-(6-(4-(2-((2-oxaspiro[3.3]heptan-6-yl)oxy)phenyl)piperidin-1-yl)-2-azaspiro[3.4]octan-2-yl)(1-fluorocyclopropyl)methanone or (S)-(6-(4-(2-((2-oxaspiro[3.3]heptan-6-yl)oxy)phenyl)piperidin-1-yl)-2-azaspiro[3.4]octan-2-yl)(1-fluorocyclopropyl)methanone], the “M2 FDSS PA” value in assay [1] is on record as 0%. Also, in assay [2], the “M5 FDSS PA” value was 0% and the EC50 was greater than 25 µM.
As for `Fc1ccc(OC2CC3(COC3)C2)c(C2CCN([C@@H]3CCC4(C3)CN(c3nnco3)C4)CC2)c1` [Example 1B, (R)-2-(6-(4-(2-((2-oxaspiro[3.3]heptan-6-yl)oxy)-5-fluorophenyl)piperidin-1-yl)-2-azaspiro[3.4]octan-2-yl)-1,3,4-oxadiazole], in assay [1], the Emax was determined as 0%. Besides, in assay [2], the Emax came out at 0% and the EC50 is greater than 25 µM.
In the case of `c1ccc(C2CCN([C@@H]3CCC4(C3)CN(c3nnco3)C4)CC2)c(OC[C@H]2COCCO2)c1` [Example 1C, 2-((R)-6-(4-(2-(((R)-1,4-dioxan-2-yl)methoxy)phenyl)piperidin-1-yl)-2-azaspiro[3.4]octan-2-yl)-1,3,4-oxadiazole], in assay [1], the Emax came out at 15% and the EC50 was 0.017 µM. In assay [2], the Emax came to 0% and the EC50 was greater than 25 µM.
With `Cc1coc(N2CC3(CC[C@@H](N4CCC(c5ccc(F)cc5OCC(C)(C)O)CC4)C3)C2)n1` [Example 3N, (R)-1-(5-fluoro-2-(1-(2-(4-methyloxazol-2-yl)-2-azaspiro[3.4]octan-6-yl)piperidin-4-yl)phenoxy)-2-methylpropan-2-ol], the Emax in assay [1] and in assay [2] was 0% throughout. Also, the EC50 in assay [2] is greater than 25 µM.
Consider `Cc1coc(N2CC3(CC[C@@H](N4CCC(c5ccccc5OCC(C)(C)O)CC4)C3)C2)n1` [Example 3O, (R)-2-methyl-1-(2-(1-(2-(4-methyloxazol-2-yl)-2-azaspiro[3.4]octan-6-yl)piperidin-4-yl)phenoxy)propan-2-ol], for which, in assay [1], the Emax came out at 0%. In addition, in assay [2], the Emax came to 0% and the EC50 was greater than 25 µM.
For the compound `COc1ccccc1C1CCN([C@@H]2CCC3(C2)CN(c2ncon2)C3)CC1` [Example 4A, (R)-3-(6-(4-(2-methoxyphenyl)piperidin-1-yl)-2-azaspiro[3.4]octan-2-yl)-1,2,4-oxadiazole], in assay [1], the Emax was found to be 21% and the EC50 is 0.019 µM. In assay [2], the Emax came out at 6% and the EC50 was 0.7 µM.
Consider `COc1ccccc1C1CCN([C@@H]2CCC3(C2)CN(c2cncnc2)C3)CC1` [Example 5A, (R)-6-(4-(2-methoxyphenyl)piperidin-1-yl)-2-(pyrimidin-5-yl)-2-azaspiro[3.4]octane], for which the Emax in assay [1] and in assay [2] was 0% in each case. Besides, the EC50 in assay [2] is greater than 25 µM.
In the case of `CC(C)(O)COc1ccccc1C1CCN([C@@H]2CCC3(C2)CN(c2cncnc2)C3)CC1` [Example 5B, (R)-2-methyl-1-(2-(1-(2-(pyrimidin-5-yl)-2-azaspiro[3.4]octan-6-yl)piperidin-4-yl)phenoxy)propan-2-ol], in assay [1], the Emax was 0%. In addition, in assay [2], the Emax amounted to 0% and the EC50 is greater than 25 µM.
As for `Cc1ncncc1N1CC2(CC[C@@H](N3CCC(c4ccccc4OCC(C)(C)O)CC3)C2)C1` [Example 5C, (R)-2-methyl-1-(2-(1-(2-(4-methylpyrimidin-5-yl)-2-azaspiro[3.4]octan-6-yl)piperidin-4-yl)phenoxy)propan-2-ol], the Emax in assay [1] and in assay [2] was 0% each time. Further, the EC50 in assay [2] was greater than 25 µM.
On to `COc1ccccc1C1CCN([C@@H]2CCC3(C2)CN(c2ccc(C)nc2)C3)CC1` [Example 5D, (R)-6-(4-(2-methoxyphenyl)piperidin-1-yl)-2-(6-methylpyridin-3-yl)-2-azaspiro[3.4]octane], for which the Emax in assay [1] turned out to be 0%. For the same compound, in assay [2], the Emax was found to be 0% and the EC50 is greater than 25 µM.
